Entries after “also recorded” stand apart in the source; their conditions may differ.
Columns and labels:
[1] = tested on: Huh7 cells; assay: MTT cytotoxicity assay, Huh7; type: cell-based
Description: (§1) Huh7 and PLC/PRF/5 (CRL-8024™) cells were purchased from Thermo Fisher Scientific and the ATCC, respectively. MIHA was kindly provided by Dr. J. R. Chowdhury, Albert Einstein College of Medicine, New York. The cell lines were cultured in Dulbecco's modified Eagle medium (DMEM, Gibco, MA, USA) supplemented with 10% fetal bovine serum (FBS, BI, MA, USA) and 1× penicillin-streptomycin solution (Solarbio) at 37° C. in a humid, 5% CO2 atmosphere.
(§2) Huh7 and PLC/PRF/5 cells at a density of 5×10^3 cells/well were cultured in 96-well plates and incubated at 37° C. in 5% CO2. Both cell lines were treated with different concentrations of benzoxazinone derivatives (ZAK-I-57, ZAK-I-64, and ZAK-I-68). Both cell lines were incubated with ZAK-I-57 for 24 h and for 48 h with ZAK-I-64 and ZAK-I-68. MTT (3-[4,5-dimethylthiazol-2-yl]-2,5-diphenyltetrazolium bromide) solution was then added to each well and incubated for 3 h in a CO2 atmosphere at 37° C. Insoluble formazan crystals were dissolved by adding 100 μL of dimethyl sulfoxide (DMSO) to each well, followed by orbital agitation for 10 min. A minimum of three biological replicates were analyzed using a plate reader to determine IC50. The same experiment was performed with MIHA hepatocyte cells to evaluate the selectivity cytotoxicity of ZAK-I-57.

[2] = tested on: PLC/PRF/5 cells; assay: MTT cytotoxicity assay, PLC/PRF/5; type: cell-based
Description: as §1, §2

[3] = MTT cytotoxicity assay, MIHA normal hepatocytes; type: cell-based; settings: human, MIHA normal hepatocyte cells, all concentrations, read-out: cell viability
Description: as §1, §2

[4] = tested on: MIHA cells; assay: MTT cytotoxicity assay, MIHA normal hepatocytes; type: cell-based; settings: Hepatocyte
Description: as §1, §2

[5] = tested on: EGFR; assay: Western blot of EGFR expression in Huh7 cells; type: cell-based; settings: Huh7, 48 h treatment
Description: (§3) The Huh7 cells and tumor tissues were lysed on ice using the lysis buffer. Protein concentration was quantified using Bradford assay (Bio-Rad, Hercules, CA, USA). Equivalent amounts of protein (25-50 μg) were loaded onto 10% sodium dodecyl sulfate-polyacrylamide gel electrophoresis (SDS-PAGE) and transferred to polyvinylidene fluoride (PVDF) membranes. Membranes were blocked with 5% non-fat milk in Tris-buffered saline Tween 20 (TBST) for an hour. The blots were incubated with primary antibodies (EGFR (4267S, Cell signaling technology, MA, USA), c-Myc (5605S, Cell signaling technology, MA, USA), Bax (2772S, Cell signaling technology, MA, USA), Bcl-2 (sc-7382, Santa Cruze, TX, USA), ERBB2 (2165S, Cell signaling technology, MA, USA), and α-tubulin (62204, Invitrogen, MA, USA), 1:1000) at 4° C. overnight. Subsequently, the membranes were washed thrice (15 min each) with TBST solution and incubated for 1 h with secondary horseradish peroxidase-conjugated antibodies (NA934 and NA931, Cytiva, MA, USA, 1:5000). Blots were then detected using an ECL kit and photographed using a ChemiDoc Imaging System (Bio-Rad, MA, USA). The bands were quantified using the ImageJ software (NIH, USA). The intensities of the bands for each protein sample were normalized to those of α-tubulin (internal standard protein). Quantitative data are presented as a fold change of untreated control.

[6] = tested on: c-Myc; assay: Western blot of c-Myc expression in Huh7 cells; type: cell-based; settings: Huh7, 48 h treatment
Description: as §3

[7] = tested on: ERBB2; assay: Western blot of ERBB2 expression in Huh7 cells; type: cell-based; settings: Huh7, 48 h treatment
Description: as §3

[8] = tested on: HCC PDTX mouse model; assay: HCC patient-derived tumor xenograft (PDTX #1) mouse model; type: in vivo, mice
Description: Male BALB/c nude mice (6-8 weeks old) were obtained from the Centralized Animal Facilities at the Hong Kong Polytechnic University. All animals were bred and housed under specific pathogen-free conditions, with access to sterile food and water. Environmental conditions were strictly controlled, with temperature maintained at 23±2° C., relative humidity between 30%-70%, and a 12-hour light/dark cycle. Mice were group-housed in accordance with institutional guidelines for recommended stocking density. The animal experiments were conducted according to institutional guidelines, and the experimental procedures were approved by the PolyU Animal Experimentation Ethics Committee (Ref. No. 19-20/57-ABCT-R-STUDENT).
The procedure for the establishment of PDTX #1 was previously described. Tumor cells from PDTX #1 was inoculated subcutaneously on the back of nude mice. When the tumors reached approximately 1,000 mm^3, mice with the first generation of xenografts (P1) were sacrificed, and the xenografts were isolated and expanded for the second generation (P2). When P2 xenografts reached an average volume of 70 mm^3, mice were subjected to ZAK-I-57 and sorafenib treatment. The development of PDTX was approved by the Institutional Review Board of the University of Hong Kong/Hospital Authority Hong Kong West Cluster (UW 17-056) and informed consents were obtained from patients.
as §3
Tumors were fixed in 4% formalin, embedded in paraffin, and sectioned at […] thickness for IHC staining. Ki-67 primary antibody (ab16667, Abcam, MA, USA) and anti-mouse IgG recombinant secondary antibody (7056S, Cell Signaling Technology, MA, USA) were used for IHC staining. Hemotoxin (Invitrogen, MA, USA) was used to stain nuclei. The number of positively stained cells in Ki-67-stained slides was evaluated using ImageJ software (NIH, MD, USA).
H&E staining was performed on histological sections of organs (heart, spleen, kidney, liver, and lung) to examine the toxicity of ZAK-I-57 in PLC/PRF/5 tumor-bearing and PDTX model mice. Briefly, the histological slides were deparaffinized using 100% xylene (v/v). The slides were then washed several times with ethanol solutions of various concentrations (70-100%, v/v) and immersed in hematoxylin for 5 min, followed by a quick dip in acidic alcohol. Next, the slides were immersed in Scott's tap water for 3 min and in 1% eosin for 30 s. Finally, the slides were dehydrated using ethanol solutions of various concentrations (70%-100%, v/v) and 100% xylene (v/v) and mounted using a mounting medium.

[9] = heart, liver, spleen, lung, kidney, ZAK-I-57 15 and 30 mg/kg, sorafenib 30 mg/kg

## O=c1oc(-c2ccc3ccccc3c2)nc2cc([N+](=O)[O-])ccc12 [ZAK-I-57, 2-(naphthalen-2-yl)-7-nitro-4H-3,1-benzoxazin-4-one]
[1]; HCC cells (Huh7)
  IC50 against HCC cells, compared with sorafenib and artesunate: lower than sorafenib and artesunate
[1]; Huh7, ZAK-I-57 24 h, ZAK-I-64 and ZAK-I-68 48 h
  cytotoxicity (cell viability): concentration-dependent increase in cytotoxicity
[2]; HCC cells (PLC/PRF/5)
  IC50 against HCC cells, compared with sorafenib and artesunate: lower than sorafenib and artesunate
[2]; PLC/PRF/5, ZAK-I-57 24 h, ZAK-I-64 and ZAK-I-68 48 h
  cytotoxicity (cell viability): concentration-dependent increase in cytotoxicity
[3]; 24 h
  viability at 24 h: > 90%
[3]; 48 h
  viability at 48 h: > 90%
[4]; 24 h
  IC50: > 100 µM
[4]; 48 h
  IC50: > 100 µM
[4]; time not stated
  IC50: > 100 µM
[5]
  EGFR expression: significant downregulation
[6]
  c-Myc expression: significant downregulation
[7]
  ERBB2 expression: significant downregulation
[8]; 15 mg/kg and 30 mg/kg, vs vehicle control
  percentage of tumor growth: markedly diminished
[8]; 30 mg/kg
  Bax expression in tumor (western blot): significantly upregulating
  Bcl-2 expression in tumor (western blot): downregulating
  EGFR expression in tumor (western blot): downregulated
  Ki-67 suppression compared with sorafenib: significantly greater Ki-67 suppression than sorafenib
  c-Myc expression in tumor (western blot): downregulated
  tumor cell density and necrosis (H&E staining): substantial decrease in cell density and necrosis
  tumor volume reduction compared with sorafenib: outperforming sorafenib
  tumor weight: significant reduction; also recorded: outperforming sorafenib
[8]; 15 and 30 mg/kg
  Ki-67 expression in tumor (IHC): inhibition of Ki-67 expression
  tumor progression (tumor volume): significantly inhibited tumor progression in a dose-dependent manner
[8]; ZAK-I-57 15 and 30 mg/kg, sorafenib 30 mg/kg
  body weight: no significant difference
[8]; ZAK-I-57 15 and 30 mg/kg, sorafenib 30 mg/kg, vs vehicle control
  tumor cellularity (H&E staining): marked reduction in tumor cellularity
[8]; [9]
  gross anatomical examination of vital organs: maintained tissue morphology comparable to the vehicle control
  histopathology of vital organs (H&E): no histological abnormalities were observed
